Test results reported in ChEMBL document CHEMBL1201862, “PubChem BioAssay data set” (2004).
The source made the active and inactive calls.

Columns and labels:
[1] = target: T1, Hexokinase HKDC1 (Homo sapiens, UniProt Q2TB90); assay: HKDC1 hexokinase inhibitors, dose response, biochemical, W721R variant (AID 504729); type: functional
T1 sequence (Q2TB90 whole entry): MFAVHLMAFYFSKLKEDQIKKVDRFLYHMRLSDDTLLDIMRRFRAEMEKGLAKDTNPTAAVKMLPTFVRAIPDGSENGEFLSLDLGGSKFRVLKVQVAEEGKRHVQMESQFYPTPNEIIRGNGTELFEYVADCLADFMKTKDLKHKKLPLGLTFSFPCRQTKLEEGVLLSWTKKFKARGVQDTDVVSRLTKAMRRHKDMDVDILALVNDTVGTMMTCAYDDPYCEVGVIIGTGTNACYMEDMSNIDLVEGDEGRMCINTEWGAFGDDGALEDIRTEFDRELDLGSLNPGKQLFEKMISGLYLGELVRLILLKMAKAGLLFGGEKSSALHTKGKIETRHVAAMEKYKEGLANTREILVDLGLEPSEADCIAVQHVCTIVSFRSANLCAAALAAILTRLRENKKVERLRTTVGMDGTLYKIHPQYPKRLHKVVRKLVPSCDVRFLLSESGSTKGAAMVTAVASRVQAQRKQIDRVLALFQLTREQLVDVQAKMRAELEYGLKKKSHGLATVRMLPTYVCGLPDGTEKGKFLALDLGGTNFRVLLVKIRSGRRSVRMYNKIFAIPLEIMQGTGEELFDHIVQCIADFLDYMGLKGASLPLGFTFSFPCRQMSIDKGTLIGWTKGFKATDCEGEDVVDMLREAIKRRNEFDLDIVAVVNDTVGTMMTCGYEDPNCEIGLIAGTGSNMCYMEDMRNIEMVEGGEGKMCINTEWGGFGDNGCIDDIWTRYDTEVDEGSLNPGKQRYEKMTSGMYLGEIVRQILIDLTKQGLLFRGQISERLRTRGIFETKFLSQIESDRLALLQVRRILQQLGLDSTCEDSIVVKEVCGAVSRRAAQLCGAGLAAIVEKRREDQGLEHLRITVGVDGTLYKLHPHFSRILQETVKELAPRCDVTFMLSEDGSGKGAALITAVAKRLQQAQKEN

[2] = target: Induced myeloid leukemia cell differentiation protein Mcl-1 (Homo sapiens, UniProt Q07820); type: functional
[3] = target: T2, Heat shock factor protein 1 (Mus musculus, UniProt P38532); assay: inhibition of MG132-induced HSE-luciferase signal, confirmation, cell-based, NIH3T3, luminescence, dose retest (AID 2382); type: functional;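 note: NIH3T3 fibroblasts with HSF1-driven luciferase reporter stressed by proteasome inhibitor MG132; luminescence from HSF1-driven luciferase expression after 8 hours of MG132 stress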
T2 sequence (P38532 whole entry): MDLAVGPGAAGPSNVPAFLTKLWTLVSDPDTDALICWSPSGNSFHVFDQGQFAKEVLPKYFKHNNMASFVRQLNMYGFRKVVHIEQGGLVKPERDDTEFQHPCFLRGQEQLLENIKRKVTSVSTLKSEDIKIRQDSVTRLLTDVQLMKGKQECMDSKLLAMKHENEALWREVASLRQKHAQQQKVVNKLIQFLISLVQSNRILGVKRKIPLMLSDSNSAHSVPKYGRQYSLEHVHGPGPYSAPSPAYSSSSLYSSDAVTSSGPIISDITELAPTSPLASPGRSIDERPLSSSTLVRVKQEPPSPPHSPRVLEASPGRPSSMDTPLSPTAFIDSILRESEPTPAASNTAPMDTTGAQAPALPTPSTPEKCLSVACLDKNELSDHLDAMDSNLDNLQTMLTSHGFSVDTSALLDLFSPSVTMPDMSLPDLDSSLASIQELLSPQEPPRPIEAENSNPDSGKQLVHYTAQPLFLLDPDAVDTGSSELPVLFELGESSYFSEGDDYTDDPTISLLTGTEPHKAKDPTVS

[4] = tested on: H9c2; assay: cells; type: functional, cell-based; details: Rattus norvegicus, H9c2, Myocardium;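 note: confirmatory concentration-response retest of ultra-high-throughput screening hits for modulation of myocardial damage; cell death induced by hydrogen peroxide oxidative stress; compound pretreatment for 60 min then peroxide exposure for 2 h; potency is for protecting the cells against peroxide damage rather than for killing them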
[5] = target: T3, Bcl-2-like protein 10 (Homo sapiens, UniProt Q9HD36); assay: displacers of TR3 peptide from Bcl-B, primary screen, selectivity assay for Bfl-1 inhibitor project, biochemical, fluorescence polarization, FITC-TR3 peptide (AID 748);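 note: fluorescence polarization from a fluorescein-labelled TR3 peptide binding purified Bcl-B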
T3 sequence (Q9HD36 whole entry): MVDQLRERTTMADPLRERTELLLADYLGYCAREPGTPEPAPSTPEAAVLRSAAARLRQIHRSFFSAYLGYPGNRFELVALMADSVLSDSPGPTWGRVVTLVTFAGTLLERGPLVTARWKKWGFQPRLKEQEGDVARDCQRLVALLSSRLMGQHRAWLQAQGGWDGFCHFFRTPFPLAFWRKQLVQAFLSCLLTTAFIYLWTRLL

[6] = target: Ras and Rab interactor 1/Tyrosine-protein kinase ABL1 (Homo sapiens, UniProt P00519+Q13671); type: functional;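 note: biochemical TR-FRET dose-response test measuring inhibition of binding between Rin1 and Abl proteins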
[7] = target: T4, Estrogen receptor beta (Homo sapiens, UniProt Q92731);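 note: recombinant ER-beta bound to coactivator SRC1 peptide in presence of estradiol agonist; inhibitors block coactivator peptide binding and lower the FRET signal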
[8] = target: T4, Estrogen receptor beta; assay: ERβ–SRC-3 coactivator interaction inhibitors, confirmation, orthogonal assay, biochemical, ELISA, streptavidin-HRP readout (AID 1060)
[9] = target: T5, Carboxy-terminal domain RNA polymerase II polypeptide A small phosphatase 1 (Homo sapiens, UniProt Q9GZU7); assay: inhibitors of CTDSP1, concentration-response testing, biochemical assay, absorbance-based, actives from ultra-high-throughput screening (AID 540297); type: functional
T5 sequence (Q9GZU7 whole entry): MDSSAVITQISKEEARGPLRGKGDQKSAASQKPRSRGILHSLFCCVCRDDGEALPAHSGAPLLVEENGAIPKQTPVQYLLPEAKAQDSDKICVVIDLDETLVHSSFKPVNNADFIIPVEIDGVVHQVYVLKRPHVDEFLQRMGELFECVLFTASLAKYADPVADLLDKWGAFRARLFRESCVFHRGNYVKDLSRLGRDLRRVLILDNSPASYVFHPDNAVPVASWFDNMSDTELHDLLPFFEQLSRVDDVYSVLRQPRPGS

[10] = cytotoxicity toward DRD oncogenic fibroblasts, dose response, cell-based, non-viral oncogenic, luminescence (AID 1934); type: functional; details: Homo sapiens
[11] = target: T6, Voltage-gated N-type calcium channel alpha-1B subunit/Amyloid beta A4 precursor protein-binding family A member 1 (Homo sapiens, UniProt Q00975+Q02410); type: protein assay
[12] = target: T6, Voltage-gated N-type calcium channel alpha-1B subunit/Amyloid beta A4 precursor protein-binding family A member 1; type: protein assay; remark: listed apart in the source
[13] = tested on: BJ; assay: cytotoxicity toward BJ-TERT fibroblasts, dose response, cell-based, RAS-independent, luminescence (AID 1933); type: functional; details: Homo sapiens
[14] = target: T2, Heat shock factor protein 1; assay: HSF1 potentiators in luciferase reporter cells, confirmation, cell-based, NIH3T3, luminescence, dose retest (AID 435004); type: functional;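 note: stress induced by proteasome inhibitor MG132 added 30 min after compound; luciferase reporter driven by HSF1 response element in NIH3T3 cells; actives raise luminescence as potentiators of the MG132 stress response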
[15] = target: T7, Estrogen receptor (Homo sapiens, UniProt P03372);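 note: potency for inhibiting coactivator peptide recruitment to the receptor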
T7 sequence (P03372 whole entry): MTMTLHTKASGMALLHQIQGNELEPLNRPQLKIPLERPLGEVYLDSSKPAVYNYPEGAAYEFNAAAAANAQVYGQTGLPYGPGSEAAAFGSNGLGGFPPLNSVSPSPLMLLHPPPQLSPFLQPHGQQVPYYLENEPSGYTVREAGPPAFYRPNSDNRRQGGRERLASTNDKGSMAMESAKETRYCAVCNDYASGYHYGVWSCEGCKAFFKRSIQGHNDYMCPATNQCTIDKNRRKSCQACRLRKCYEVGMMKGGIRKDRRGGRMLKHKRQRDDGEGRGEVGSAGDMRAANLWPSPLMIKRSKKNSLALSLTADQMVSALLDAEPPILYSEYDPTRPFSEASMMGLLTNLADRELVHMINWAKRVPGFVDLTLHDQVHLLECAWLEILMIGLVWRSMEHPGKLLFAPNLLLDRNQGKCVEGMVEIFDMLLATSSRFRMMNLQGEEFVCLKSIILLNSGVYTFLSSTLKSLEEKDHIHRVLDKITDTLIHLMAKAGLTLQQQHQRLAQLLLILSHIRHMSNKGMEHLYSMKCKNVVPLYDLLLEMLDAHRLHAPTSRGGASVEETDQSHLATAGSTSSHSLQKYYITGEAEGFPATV

[16] = tested on: BJ; assay: cytotoxicity toward BJ-TERT-LT-ST fibroblasts, dose response, cell-based, RAS-independent, luminescence (AID 1935); type: functional; details: Homo sapiens;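 note: BJ fibroblasts immortalized with TERT plus LT and ST oncogenes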
[17] = tested on: BJ; assay: cells; type: functional, cell-based; details: Homo sapiens
[18] = target: G-protein coupled receptor 35 (Homo sapiens, UniProt Q9HC97); assay: GPR35 antagonists blocking zaprinast-driven arrestin recruitment, primary screen, imaging, U2OS, beta-arrestin-GFP, zaprinast agonist (AID 2058); type: functional;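 note: antagonist potency meaning inhibition of agonist-induced arrestin redistribution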
[19] = tested on: HEK293; assay: NOD2 signaling inhibitors in MDP-stimulated cells, cell-based, uHTS, luminescence (AID 2001); type: functional; details: Homo sapiens
[20] = tested on: HEK293; assay: cells; details: Homo sapiens
[21] = tested on: HEK293; assay: NOD1 signaling inhibitors, primary screen, cell-based, luminescence, uHTS (AID 1578); type: functional; details: Homo sapiens
[22] = tested on: HEK293; assay: cells; type: functional, cell-based; details: Homo sapiens
[23] = target: Tumor necrosis factor (Homo sapiens, UniProt P01375); assay: TNFa-triggered NF-kB activation inhibitors, SAR follow-up, cell-based, revised (AID 2337); type: functional
[24] = tested on: HEK293; assay: cells; type: functional, cell-based; details: Homo sapiens; remark: listed apart in the source
[25] = tested on: HEK293; assay: cells; type: functional, cell-based; details: Homo sapiens; remark: listed apart in the source
[26] = target: T8, Nucleotide-binding oligomerization domain-containing protein 1 (Homo sapiens, UniProt Q9Y239); assay: NOD1 signaling inhibitors, SAR follow-up, revised (AID 2333); type: functional
T8 sequence (Q9Y239 whole entry): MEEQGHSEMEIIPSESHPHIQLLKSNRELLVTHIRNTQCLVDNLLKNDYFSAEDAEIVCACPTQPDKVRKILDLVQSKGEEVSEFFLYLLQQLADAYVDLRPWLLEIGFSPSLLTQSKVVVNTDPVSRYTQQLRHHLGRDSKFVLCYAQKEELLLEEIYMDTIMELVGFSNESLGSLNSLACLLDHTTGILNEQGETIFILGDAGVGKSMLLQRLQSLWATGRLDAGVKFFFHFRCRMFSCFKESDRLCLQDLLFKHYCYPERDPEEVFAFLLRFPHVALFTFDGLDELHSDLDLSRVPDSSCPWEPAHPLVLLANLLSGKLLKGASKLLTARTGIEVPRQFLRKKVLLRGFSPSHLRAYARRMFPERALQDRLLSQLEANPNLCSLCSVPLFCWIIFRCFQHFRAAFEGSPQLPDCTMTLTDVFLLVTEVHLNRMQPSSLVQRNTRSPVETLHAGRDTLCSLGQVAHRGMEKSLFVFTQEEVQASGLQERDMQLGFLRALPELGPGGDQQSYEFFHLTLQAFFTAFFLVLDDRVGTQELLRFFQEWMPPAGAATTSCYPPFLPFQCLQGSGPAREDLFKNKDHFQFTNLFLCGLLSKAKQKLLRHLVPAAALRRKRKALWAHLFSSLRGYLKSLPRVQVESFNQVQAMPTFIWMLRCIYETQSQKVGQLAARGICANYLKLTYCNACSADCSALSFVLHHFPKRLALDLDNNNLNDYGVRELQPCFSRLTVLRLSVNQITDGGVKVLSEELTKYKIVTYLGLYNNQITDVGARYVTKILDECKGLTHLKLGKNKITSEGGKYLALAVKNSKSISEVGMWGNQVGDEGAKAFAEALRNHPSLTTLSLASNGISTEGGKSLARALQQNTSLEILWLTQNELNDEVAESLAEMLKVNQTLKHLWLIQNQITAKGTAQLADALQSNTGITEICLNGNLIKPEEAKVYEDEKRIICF

[27] = target: T9, Nucleotide-binding oligomerization domain-containing protein 2 (Homo sapiens, UniProt Q9HC29); assay: NOD2 signaling inhibitors, cell-based, luminescence, uHTS, HEK293 (AID 1566); type: functional
[28] = target: Nonstructural protein 1 (Influenza A virus, UniProt Q194T2); type: functional, Influenza A virus (A/California/07/2009(H1N1))
[29] = target: T9, Nucleotide-binding oligomerization domain-containing protein 2; assay: PubChem AID 2334; type: functional

T4 sequence (Q92731 whole entry): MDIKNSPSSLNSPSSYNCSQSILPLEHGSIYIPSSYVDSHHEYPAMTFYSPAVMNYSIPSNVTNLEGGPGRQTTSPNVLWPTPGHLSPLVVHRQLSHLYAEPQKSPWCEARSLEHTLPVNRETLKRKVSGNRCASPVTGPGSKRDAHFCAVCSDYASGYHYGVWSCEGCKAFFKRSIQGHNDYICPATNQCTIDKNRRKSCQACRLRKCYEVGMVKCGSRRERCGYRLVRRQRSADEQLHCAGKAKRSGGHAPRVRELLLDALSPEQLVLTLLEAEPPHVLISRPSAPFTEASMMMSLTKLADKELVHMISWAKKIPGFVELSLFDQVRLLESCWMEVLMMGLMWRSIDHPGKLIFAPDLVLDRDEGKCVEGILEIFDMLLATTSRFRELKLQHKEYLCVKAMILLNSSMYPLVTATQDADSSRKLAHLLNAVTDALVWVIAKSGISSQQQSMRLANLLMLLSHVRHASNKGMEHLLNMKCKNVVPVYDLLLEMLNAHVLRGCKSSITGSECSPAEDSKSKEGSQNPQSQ
T9 sequence (Q9HC29 whole entry, the tested form may be a part): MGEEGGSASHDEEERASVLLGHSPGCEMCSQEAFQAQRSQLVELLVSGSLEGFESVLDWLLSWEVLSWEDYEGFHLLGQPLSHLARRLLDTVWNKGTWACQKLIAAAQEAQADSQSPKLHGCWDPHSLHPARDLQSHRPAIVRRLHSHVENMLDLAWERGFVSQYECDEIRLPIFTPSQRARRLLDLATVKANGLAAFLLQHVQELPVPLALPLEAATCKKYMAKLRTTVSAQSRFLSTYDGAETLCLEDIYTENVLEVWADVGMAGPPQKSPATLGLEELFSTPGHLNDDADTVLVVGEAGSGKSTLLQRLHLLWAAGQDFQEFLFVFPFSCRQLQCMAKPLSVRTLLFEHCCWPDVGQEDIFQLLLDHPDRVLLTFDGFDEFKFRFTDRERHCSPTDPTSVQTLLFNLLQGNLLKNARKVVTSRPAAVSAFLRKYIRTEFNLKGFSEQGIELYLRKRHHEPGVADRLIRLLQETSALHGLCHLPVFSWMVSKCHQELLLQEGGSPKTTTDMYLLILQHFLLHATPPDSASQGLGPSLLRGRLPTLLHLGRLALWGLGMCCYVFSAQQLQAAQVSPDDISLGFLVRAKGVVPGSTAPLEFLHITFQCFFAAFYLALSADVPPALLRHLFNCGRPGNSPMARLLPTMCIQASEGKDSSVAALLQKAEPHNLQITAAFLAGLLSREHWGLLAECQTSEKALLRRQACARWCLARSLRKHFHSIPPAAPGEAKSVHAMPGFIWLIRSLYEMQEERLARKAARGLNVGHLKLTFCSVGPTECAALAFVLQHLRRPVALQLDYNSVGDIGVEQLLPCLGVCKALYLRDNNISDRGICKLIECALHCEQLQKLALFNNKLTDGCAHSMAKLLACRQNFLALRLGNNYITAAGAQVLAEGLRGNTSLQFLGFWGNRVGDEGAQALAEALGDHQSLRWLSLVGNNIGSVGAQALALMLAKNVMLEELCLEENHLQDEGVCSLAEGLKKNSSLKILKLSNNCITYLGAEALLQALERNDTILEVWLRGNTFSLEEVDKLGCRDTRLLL
Sequence of Tumor necrosis factor (P01375 whole entry): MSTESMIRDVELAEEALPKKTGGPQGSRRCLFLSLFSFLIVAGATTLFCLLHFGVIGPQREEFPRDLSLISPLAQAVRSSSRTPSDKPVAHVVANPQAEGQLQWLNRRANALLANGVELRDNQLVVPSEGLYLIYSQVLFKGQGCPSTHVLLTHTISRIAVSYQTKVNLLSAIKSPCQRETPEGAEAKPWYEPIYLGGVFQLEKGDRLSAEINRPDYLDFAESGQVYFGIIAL
T6 sequence (Q00975 whole entry): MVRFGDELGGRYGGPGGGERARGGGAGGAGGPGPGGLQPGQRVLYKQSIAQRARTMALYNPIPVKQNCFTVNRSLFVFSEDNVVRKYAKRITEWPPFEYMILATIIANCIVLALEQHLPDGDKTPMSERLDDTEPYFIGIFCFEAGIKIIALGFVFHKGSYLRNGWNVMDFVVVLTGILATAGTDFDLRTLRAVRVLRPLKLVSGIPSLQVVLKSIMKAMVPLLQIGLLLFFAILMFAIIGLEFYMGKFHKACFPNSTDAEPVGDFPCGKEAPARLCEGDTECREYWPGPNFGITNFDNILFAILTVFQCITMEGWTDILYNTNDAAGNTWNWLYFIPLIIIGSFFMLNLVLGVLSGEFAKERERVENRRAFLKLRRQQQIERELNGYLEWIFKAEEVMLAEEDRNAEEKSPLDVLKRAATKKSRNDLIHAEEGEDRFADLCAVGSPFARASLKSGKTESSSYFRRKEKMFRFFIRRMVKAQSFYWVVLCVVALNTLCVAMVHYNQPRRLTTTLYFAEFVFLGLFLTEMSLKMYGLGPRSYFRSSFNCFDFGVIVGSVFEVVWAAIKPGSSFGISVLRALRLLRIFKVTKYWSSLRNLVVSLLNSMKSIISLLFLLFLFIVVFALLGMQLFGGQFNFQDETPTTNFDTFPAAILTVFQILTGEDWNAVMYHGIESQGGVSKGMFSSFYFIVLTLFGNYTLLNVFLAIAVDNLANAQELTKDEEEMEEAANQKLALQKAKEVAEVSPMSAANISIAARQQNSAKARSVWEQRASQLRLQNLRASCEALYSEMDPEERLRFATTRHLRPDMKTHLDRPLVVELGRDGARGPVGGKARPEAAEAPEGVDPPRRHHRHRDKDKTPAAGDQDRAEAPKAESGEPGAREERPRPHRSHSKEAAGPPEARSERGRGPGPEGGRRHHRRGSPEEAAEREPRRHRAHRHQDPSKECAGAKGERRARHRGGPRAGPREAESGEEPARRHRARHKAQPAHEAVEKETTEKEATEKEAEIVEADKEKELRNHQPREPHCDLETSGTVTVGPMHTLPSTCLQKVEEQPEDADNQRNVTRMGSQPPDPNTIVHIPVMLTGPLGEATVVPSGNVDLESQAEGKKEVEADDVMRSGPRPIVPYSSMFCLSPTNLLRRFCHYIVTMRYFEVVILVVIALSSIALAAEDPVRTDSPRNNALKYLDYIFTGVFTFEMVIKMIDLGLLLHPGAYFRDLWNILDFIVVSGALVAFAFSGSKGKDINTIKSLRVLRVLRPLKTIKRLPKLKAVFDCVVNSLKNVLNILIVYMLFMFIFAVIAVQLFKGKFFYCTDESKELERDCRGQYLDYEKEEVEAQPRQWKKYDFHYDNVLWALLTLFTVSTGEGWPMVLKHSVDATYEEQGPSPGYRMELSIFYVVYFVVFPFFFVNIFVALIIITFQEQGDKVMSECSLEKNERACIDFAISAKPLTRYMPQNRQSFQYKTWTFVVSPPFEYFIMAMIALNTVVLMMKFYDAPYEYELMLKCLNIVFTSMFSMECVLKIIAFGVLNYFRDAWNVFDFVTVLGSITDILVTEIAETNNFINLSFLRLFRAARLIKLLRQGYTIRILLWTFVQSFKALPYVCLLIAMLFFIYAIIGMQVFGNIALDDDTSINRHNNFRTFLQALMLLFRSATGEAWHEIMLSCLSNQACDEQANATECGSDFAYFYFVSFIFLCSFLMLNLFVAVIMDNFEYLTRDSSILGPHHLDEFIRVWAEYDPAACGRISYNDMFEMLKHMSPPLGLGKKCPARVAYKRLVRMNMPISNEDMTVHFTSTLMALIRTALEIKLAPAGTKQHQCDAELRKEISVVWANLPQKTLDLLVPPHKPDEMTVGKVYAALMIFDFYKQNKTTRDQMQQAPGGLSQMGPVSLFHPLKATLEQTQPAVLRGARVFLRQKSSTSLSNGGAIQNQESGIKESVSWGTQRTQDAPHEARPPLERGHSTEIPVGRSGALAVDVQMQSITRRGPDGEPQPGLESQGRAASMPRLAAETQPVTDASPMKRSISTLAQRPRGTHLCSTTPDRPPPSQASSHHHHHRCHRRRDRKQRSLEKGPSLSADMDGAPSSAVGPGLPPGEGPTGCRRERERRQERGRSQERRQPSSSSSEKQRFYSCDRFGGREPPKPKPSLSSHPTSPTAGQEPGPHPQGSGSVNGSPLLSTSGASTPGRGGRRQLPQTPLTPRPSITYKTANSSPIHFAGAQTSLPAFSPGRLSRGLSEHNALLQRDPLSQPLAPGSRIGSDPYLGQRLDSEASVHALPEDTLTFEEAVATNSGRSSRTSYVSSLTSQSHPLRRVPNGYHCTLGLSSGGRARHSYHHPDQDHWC
T6 sequence (Q02410 whole entry): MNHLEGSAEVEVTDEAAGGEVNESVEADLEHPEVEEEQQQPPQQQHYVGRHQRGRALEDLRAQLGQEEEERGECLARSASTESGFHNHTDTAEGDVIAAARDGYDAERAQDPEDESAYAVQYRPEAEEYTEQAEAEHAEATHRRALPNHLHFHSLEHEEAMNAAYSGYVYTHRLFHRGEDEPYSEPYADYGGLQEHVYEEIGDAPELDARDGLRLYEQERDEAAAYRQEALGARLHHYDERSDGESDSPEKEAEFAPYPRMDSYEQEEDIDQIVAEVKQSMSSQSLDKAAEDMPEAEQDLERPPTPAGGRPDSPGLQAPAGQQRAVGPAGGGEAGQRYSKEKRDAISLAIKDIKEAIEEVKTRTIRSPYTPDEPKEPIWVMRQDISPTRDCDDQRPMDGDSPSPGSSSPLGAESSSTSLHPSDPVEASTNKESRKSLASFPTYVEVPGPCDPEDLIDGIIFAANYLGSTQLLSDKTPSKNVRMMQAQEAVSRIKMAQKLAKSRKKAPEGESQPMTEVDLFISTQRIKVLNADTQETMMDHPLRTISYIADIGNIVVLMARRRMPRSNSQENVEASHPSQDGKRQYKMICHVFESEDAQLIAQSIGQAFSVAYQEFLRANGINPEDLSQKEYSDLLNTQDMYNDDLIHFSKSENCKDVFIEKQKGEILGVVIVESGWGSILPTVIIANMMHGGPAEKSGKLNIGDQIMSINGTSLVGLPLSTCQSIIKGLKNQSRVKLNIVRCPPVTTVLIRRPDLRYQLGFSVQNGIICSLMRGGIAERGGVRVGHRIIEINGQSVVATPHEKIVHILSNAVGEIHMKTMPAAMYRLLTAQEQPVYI

CCn1cc(C(=O)NCc2ccc3c(c2)OCO3)c2cc(OC)c(OC)cc2c1=O
IC50 [1]: 17.2 µM (active) | IC50 [2]: 7.31 µM (not active)

CCOc1ccccc1Nc1nnc(SCc2nnc(-c3cc(OC)c(OC)c(OC)c3)o2)s1
EC50 [3]: 21.7 µM (active) | IC50 [1]: 18.8 µM (active) | IC50 [4]: > 79 µM (inactive)

Cc1ccc(-n2c(SCc3cc(=O)n4ccsc4n3)nnc2-c2cccnc2)c(C)c1
IC50 [5]: > 100 µM (inactive) | IC50 [6]: 19.6 µM (inactive) | IC50 [7]: > 50 µM (not active) | IC50 [8]: 0.721 µM (not active)

O=C(c1cc2c(s1)CCC2)N1CCN(c2ccccc2)CC1
IC50 [5]: 36.3 µM (active) | IC50 [9]: 22.4 µM (active) | IC50 [7]: 3.87 µM (active) | IC50 [8]: > 50 µM (not active)

Cc1c(C(=O)OCC2CCCO2)[nH]c2c1C(=O)CC(c1ccco1)C2 (centres undefined)
EC50 [10]: 21.8 µM (active) | IC50 [11]: > 50 µM (inactive) | IC50 [5]: 23.8 µM (active) | IC50 [12]: 21.9 µM (active) | EC50 [13]: 12.2 µM (active) | EC50 [14]: > 260 µM (inactive) | IC50 [15]: 32.1 µM (not active) | EC50 [16]: 23.6 µM (active) | EC50 [17]: 36.9 µM (active)

CC(=O)c1ccc(NC(=O)C(C)n2nc(-c3ccccc3)c3cc(Cl)ccc32)cc1 (centres undefined)
EC50 [3]: > 195 µM (not active) | IC50 [18]: 1.78 µM (active)

N#CC(c1ccccc1)c1ccc2c(C(F)(F)F)cc(C(F)(F)F)nc2n1 (centres undefined)
IC50 [19]: > 20 µM (inactive) | IC50 [20]: > 20 µM (inactive) | EC50 [21]: 4.36 µM (active) | IC50 [22]: > 20 µM (inactive) | IC50 [23]: 5.88 µM (active) | IC50 [24]: 15.4 µM (active) | IC50 [25]: > 20 µM (inactive) | IC50 [26]: 3.71 µM (active) | EC50 [27]: 13.4 µM (active) | IC50 [28]: 21.3 µM (active) | IC50 [29]: 3.99 µM (active)

Cc1cc(C(=O)NC2CCCc3c2cnn3-c2ccccc2F)n(C)n1 (centres undefined)
IC50 [20]: > 20 µM (inactive) | IC50 [23]: > 20 µM (inactive) | IC50 [26]: 0.146 µM (active) | IC50 [29]: > 20 µM (inactive)

O=C(Nc1ccc(Cl)cc1)c1ccc(CCN2CCc3ccccc3C2)cc1
IC50 [20]: > 20 µM (inactive) | IC50 [23]: > 20 µM (inactive) | IC50 [26]: > 20 µM (inactive) | IC50 [29]: > 20 µM (inactive)

COc1ccc2cc(CCNC(=O)c3ccc(S(=O)(=O)N4CCCC4)cc3)c(O)nc2c1
IC50 [1]: 7.58 µM (active)
